Source: publication PMC3530156 (Chemistry & biology, 2012)

Experiments:
Bacillus subtilis PY79 = experiment: MIC, overnight culture/serial dilution assay; format: cell-based; details: overnight serial dilution culture, purified compound
[1] = tested on: B. subtilis BSZ-9 (L11 knockout); details: colonies of M1152 + pSETGE1 overlaid with B. subtilis BSZ-9, resistant to 26-membered thiopeptides

Substance: GE37468
- MIC B. subtilis (Bacillus subtilis PY79): 0.016 µg/mL
- resistance of overlaid strain [1]: Neither BSZ-9 nor B. cereus ATCC 15479 exhibited resistance
